Read-outs that look alike come from different tables or passages of the source.
Legend:
[1] = mouse, in vivo, ip, 5 mg/kg
Protocol: Intra-peritoneal (ip), and intra-venous (iv) routes of administration were performed on 6-7 wk old female CD-1 mice (Harlan Laboratories). Animals received a single, 5 mg/kg dose in groups of three mice/compound/route of administration. […] Blood (80 ul) was collected from the saphenous vein at intervals post-dosing (20 min, 1 h, 3 h, 8 h, 24 h) in EDTA containing collection tubes (Sarstadt CB300) and plasma was prepared for analysis. Compounds were detected by time-of-flight mass spectroscopy.

CHOP and GADD34 mRNA = assay: qRT-PCR of CHOP and GADD34 mRNA in U2OS cells; assay type: cell-based, human; details: 2 μg/ml tunicamycin, 200 nM ISRIB
Protocol: FIGS. 4A-4B. ISRIB impairs induction of the transcriptional network controlled by ATF4; (FIG. 4A) ER-stress dependent induction of CHOP and GADD34 mRNA is impaired in cells treated with ISRIB; qPCR analysis of total RNA extracted from U2OS cells treated with 2 μg/ml of tunicamycin in the presence or absence of 200 nM ISRIB for the indicated times; mRNA levels for each sample were normalized to GAPDH (N=4); P values are derived from a one tail Student's t-test for unpaired samples; statistical significance: CHOP, P=0.0006 (*); GADD34, P=0.0008 (*); (FIG. 4B) ISRIB blocks CHOP production during ER stress; an immunofluorescence analysis of U2OS cells treated with 100 nM thapsigargin for 2 h in the presence or absence of 200 nM ISRIB is shown; a secondary Alexa Dye 488 anti-mouse antibody and rhodamine-phalloidin were used to visualize CHOP and actin, respectively.
U2OS cells were plated on 96 well plates and allowed to recover overnight. Cells were treated for the indicated times with the indicated compounds, lysed and cDNA was synthesized using the PowerSYBR Green Cells-to-CT kit (Ambion) following the manufacturer's recommendations. The reactions were ran in an Opticon 2 thermal cycler (BioRad) and analyzed with the Opticon Monitor v3 software (BioRad). […]

spatial learning = assay: Morris water maze (hidden platform, weak training); assay type: in vivo, mouse; details: p<0.05
Protocol: Eight to ten-week-old male C57BL/6J mice were used for behavioral experiments. Food and water were provided ad libitum, and mice were kept on a 12:12 h light/dark cycle (lights on at 08:00 h). All procedures complied with Canadian Council on Animal Care guidelines
Mice were trained in a water pool of 100 cm diameter with a hidden platform of 10 cm diameter. Mice were handled daily for 3 days before the experiment, and the training protocol consisted of 1 swimming trial per day. Each mouse swam until it found the hidden platform or 120 s, when it was gently guided to the platform and stayed there for 10 s before being returned to the cage. Immediately after the swimming trial the mice were injected intraperitoneally with ISRIB (0.25 mg/kg in saline, 1% DMSO). For the probe test, the platform was removed and each mouse was allowed to swim for 60 s, while its swimming trajectory was monitored with a video tracking system (HVS Image, Buckingham).

ATF4 luciferase reporter = ATF4 luciferase reporter assay (Cell-luc) in HEK293T cells; assay type: cell-based, human
Description: FIGS. 1A-1C. […]
To identify inhibitors of PERK signaling, we engineered a reporter that allows monitoring of PERK activation in living cells. To this end, we constructed a retroviral vector containing the open-reading frame of firefly luciferase fused to the 5′UTR of ATF4 mRNA (FIG. 1A), which contains two short open-reading frames (uORFs) that control ATF4 translation in a stress-dependent manner. After infection, we established a HEK293T cell line harboring the stably integrated reporter. […] This format was used to screen 106,281 compounds covering a wide chemical space. We identified 460 hits (0.43%) (FIG. 1C), which were further validated in an 8-point dose-response assay using the same reporter. We further triaged the compounds by discarding inhibitors that also affected the IRE1 branch of the UPR using an XBP1-luciferase splicing reporter. […] We next used an orthogonal secondary screen that employed a different reporter (bi-cistronic ATF4-dGFPIRES-mCherry) stably integrated into a different cell line (U20S cells). The read-out of this latter screen was microscopy-based, which allowed us to simultaneously assess acute toxicity by cell counting, further reducing the number of viable hits to 77. As a tertiary screen, we tested compounds for their ability to inhibit ER stress-elicited induction of endogenous ATF4 by Western blot analysis. Twenty-eight compounds passed this test and were analyzed further.
ATF4 reporters were constructed by fusing the human full-length ATF4 5′-UTR (NCBI Accession BC022088.2) in front of the firefly luciferase (FLuc) or a destabilized eGFP (dEGFP) coding sequences lacking the initiator methionine.
The ATF4-FLuc reporter was generated by cloning a PCR-product containing the ATF4 full-length 5′-UTR (from +1 position a the transcription start site down to one nucleotide after the terminator codon of the second uORF) flanked by KpnI/XhoI and BglII sites at the 5′ and 3′ ends, respectively, into the KpnI-BglII sites of pCAX-F-XBP1-Luc. The resulting construct, pCAX-ATF4-FLuc, was then digested with BamHI, blunted with T4 DNA polymerase, and then digested with XhoI. The resulting fragment was then subcloned into the retroviral expression vector pLPCX (Clontech) after digesting it with HindIII, blunting with T4 DNA polymerase and then digesting with XhoI to generate pLPCX-ATF4-FLuc (DAA-312). DAA-312 was used to produce recombinant retroviruses using standard methods and the resulting viral supernatant was used to transduce HEK293T cells, which were then subsequently selected with puromycin to generate a stable cell line employed in the primary screen.
HEK293T cells carrying the ATF4 luciferase reporter were plated on poly-lysine coated 384 well plates (Greiner) at 30,000 cells per well. […] Luminescence was measured using One Glo (Promega) as specified by the manufacturer. […] Thus, these were considered unique to the PERK branch and were cherry-picked for further analysis.

O=C(COc1ccc(Cl)cc1)NC1CCC(NC(=O)COc2ccc(Cl)cc2)CC1 (centres unmarked) [ISRIB]
AUC [1]: 3318 ng·h/mL | CLt [1]: 8.318 mL/h | F % [1]: 13.8% | T½ [1]: 8.43 h | Vd [1]: 96.0261 mL | induction of GADD34 and CHOP mRNAs (CHOP and GADD34 mRNA): significantly reduced their induction | probe test: preference for target quadrant (spatial learning; 24 h after last training session): significantly preferred the target quadrant | escape latency after 5 days of training (spatial learning; mice, 0.25 mg/kg ip daily after training, vehicle 68.1+/−20 s): 16.4 ± 4.8 s | probe test: crossing of the platform location (spatial learning; vs vehicle): increased crossing of the platform location | IC50 (ATF4 luciferase reporter; cultured HEK293T cells, 2 μg/ml tunicamycin, 7 h, synthesized isomers, read-out: IC50, inhibition of the ATF4-luciferase reporter): 5 nM | IC50 (ATF4 luciferase reporter; screening library sample, likely a mixture of the two stereoisomers, read-out: IC50 of the library compound): 40 nM

— patent publication US9708247B2, “Modulators of the eIF2alpha pathway” (The Regents of the University of California, priority 2013, dated 2017)
